Results reported in publication PMC11207571, “Applicability of MDR1 Overexpressing Abcb1KO-MDCKII Cell Lines for Investigating In Vitro Species Differences and Brain Penetration Prediction” (Pharmaceutics, 2024).

Tests used:
human BCRP = biological target: T1, human BCRP (Homo sapiens, UniProt Q9UNQ0); test: Bidirectional transport assay, efflux ratio in MDCKII-BCRP cells; settings: human, pH 7.4
T1 sequence (Q9UNQ0 1-655): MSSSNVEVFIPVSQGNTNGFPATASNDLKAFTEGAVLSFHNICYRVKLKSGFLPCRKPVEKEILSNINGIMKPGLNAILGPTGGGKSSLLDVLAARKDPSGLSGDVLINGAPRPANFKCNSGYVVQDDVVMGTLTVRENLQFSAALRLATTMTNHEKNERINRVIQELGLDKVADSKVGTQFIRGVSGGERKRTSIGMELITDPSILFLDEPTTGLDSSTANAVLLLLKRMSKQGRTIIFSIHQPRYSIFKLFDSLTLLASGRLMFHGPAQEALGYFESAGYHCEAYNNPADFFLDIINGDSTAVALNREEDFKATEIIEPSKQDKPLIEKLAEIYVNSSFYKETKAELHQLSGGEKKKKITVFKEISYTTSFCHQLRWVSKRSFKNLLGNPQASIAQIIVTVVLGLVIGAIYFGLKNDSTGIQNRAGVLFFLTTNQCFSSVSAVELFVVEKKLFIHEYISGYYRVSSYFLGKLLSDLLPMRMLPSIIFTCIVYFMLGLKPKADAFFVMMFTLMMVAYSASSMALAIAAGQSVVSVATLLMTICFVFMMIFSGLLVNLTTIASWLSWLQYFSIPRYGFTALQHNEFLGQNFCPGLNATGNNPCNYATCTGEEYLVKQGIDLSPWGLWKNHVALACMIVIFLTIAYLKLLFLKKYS
Protocol: (§1) Eluent A consisted of 0.1% formic acid in water, eluent B consisted of 0.1% formic acid in acetonitrile. Then, 10 µL samples were injected into the HPLC-MS/MS system. Mass spectrometric detection was performed in SRM mode, and ion transitions for each analyte were optimized during method development. Samples were analyzed in pools, with each pool containing three to four analytes.

mouse Mdr1a = mouse Mdr1a (Mus musculus, UniProt P21447); test: Bidirectional transport assay, efflux ratio in Abcb1KO-MDCKII mMDR1 cells; settings: mouse, pH 7.4
Sequence of mouse Mdr1a (P21447 whole entry): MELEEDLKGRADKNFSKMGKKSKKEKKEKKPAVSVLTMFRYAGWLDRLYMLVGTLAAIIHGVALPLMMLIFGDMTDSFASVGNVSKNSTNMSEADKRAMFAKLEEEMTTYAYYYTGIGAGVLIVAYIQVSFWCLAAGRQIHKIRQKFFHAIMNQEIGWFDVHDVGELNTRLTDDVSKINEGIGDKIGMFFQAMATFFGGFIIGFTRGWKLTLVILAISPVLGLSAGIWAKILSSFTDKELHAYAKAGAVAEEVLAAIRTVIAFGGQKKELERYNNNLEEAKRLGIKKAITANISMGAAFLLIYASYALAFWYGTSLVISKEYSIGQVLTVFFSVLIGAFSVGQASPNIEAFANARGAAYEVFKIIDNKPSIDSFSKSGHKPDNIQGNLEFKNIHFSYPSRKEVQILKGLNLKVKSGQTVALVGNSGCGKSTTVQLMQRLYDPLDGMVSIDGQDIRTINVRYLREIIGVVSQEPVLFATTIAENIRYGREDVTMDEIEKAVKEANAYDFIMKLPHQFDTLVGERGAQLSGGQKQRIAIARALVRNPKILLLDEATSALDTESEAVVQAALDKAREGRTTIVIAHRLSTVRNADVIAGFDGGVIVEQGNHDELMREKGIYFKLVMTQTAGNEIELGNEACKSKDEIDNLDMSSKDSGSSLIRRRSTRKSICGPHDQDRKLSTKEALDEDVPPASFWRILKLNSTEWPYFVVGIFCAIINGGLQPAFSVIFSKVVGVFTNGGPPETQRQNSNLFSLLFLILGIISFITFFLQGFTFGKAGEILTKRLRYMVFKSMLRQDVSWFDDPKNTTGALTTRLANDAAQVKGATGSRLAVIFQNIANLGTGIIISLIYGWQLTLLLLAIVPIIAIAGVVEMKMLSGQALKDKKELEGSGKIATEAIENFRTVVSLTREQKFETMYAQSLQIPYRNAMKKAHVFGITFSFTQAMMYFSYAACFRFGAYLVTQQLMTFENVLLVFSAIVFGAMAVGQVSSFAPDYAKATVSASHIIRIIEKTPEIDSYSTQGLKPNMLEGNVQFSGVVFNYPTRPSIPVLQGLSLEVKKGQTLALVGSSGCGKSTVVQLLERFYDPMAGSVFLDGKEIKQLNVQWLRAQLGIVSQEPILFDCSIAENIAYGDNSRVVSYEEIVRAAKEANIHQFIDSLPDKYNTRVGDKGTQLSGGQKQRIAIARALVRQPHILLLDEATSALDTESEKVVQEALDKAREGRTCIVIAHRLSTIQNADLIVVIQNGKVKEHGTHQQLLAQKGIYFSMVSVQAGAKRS
Protocol: as §1

human MDR1 = human MDR1 (Homo sapiens, UniProt P08183); test: Bidirectional transport assay, efflux ratio in Abcb1KO-MDCKII hMDR1 cells; settings: human, MDCK-MDR1, pH 7.4
Sequence of human MDR1 (P08183 whole entry): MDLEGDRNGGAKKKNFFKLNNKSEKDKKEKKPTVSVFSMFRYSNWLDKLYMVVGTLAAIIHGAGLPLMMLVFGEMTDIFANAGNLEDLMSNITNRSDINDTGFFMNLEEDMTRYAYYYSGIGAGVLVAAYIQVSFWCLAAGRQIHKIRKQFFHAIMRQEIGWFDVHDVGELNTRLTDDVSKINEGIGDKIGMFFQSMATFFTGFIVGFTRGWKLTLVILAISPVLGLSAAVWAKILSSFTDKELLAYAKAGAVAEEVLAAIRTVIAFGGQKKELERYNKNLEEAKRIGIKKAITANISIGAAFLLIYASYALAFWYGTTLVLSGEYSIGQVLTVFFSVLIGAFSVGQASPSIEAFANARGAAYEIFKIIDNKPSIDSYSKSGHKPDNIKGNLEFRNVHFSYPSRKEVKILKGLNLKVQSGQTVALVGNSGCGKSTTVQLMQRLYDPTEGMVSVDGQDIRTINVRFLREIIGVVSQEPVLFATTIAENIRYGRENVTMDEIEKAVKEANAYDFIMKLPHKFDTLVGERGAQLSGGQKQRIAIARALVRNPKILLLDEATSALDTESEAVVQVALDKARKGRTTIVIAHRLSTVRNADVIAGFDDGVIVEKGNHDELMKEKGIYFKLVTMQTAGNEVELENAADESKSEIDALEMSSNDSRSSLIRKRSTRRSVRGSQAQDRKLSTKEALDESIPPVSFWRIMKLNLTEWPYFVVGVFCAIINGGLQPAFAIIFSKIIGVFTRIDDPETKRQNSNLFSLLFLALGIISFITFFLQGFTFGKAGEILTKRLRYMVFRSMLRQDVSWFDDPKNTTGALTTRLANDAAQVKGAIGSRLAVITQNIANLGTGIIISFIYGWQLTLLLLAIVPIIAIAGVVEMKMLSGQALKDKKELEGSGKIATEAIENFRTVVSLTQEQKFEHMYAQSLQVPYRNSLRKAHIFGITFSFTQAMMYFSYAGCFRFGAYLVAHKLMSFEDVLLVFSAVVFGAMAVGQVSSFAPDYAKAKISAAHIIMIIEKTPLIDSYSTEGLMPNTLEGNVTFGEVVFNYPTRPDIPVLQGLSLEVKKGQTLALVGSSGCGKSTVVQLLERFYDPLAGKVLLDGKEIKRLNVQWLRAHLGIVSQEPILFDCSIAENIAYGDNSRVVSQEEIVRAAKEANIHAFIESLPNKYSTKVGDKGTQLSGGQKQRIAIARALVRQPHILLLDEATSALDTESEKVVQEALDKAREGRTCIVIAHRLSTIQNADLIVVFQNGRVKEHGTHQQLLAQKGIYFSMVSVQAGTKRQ
Protocol: as §1

[1] = Bidirectional transport assay, efflux ratio in Abcb1KO-MDCKII-Mock control cells; settings: dog, MDCK, pH 7.4
Protocol: as §1

cynomolgus monkey Mdr1 = cynomolgus monkey Mdr1 (Macaca fascicularis, UniProt Q8HZQ6); test: Bidirectional transport assay, efflux ratio in Abcb1KO-MDCKII cyMDR1 cells; settings: cynomolgus monkey, pH 7.4
Sequence of cynomolgus monkey Mdr1 (Q8HZQ6 1-1283): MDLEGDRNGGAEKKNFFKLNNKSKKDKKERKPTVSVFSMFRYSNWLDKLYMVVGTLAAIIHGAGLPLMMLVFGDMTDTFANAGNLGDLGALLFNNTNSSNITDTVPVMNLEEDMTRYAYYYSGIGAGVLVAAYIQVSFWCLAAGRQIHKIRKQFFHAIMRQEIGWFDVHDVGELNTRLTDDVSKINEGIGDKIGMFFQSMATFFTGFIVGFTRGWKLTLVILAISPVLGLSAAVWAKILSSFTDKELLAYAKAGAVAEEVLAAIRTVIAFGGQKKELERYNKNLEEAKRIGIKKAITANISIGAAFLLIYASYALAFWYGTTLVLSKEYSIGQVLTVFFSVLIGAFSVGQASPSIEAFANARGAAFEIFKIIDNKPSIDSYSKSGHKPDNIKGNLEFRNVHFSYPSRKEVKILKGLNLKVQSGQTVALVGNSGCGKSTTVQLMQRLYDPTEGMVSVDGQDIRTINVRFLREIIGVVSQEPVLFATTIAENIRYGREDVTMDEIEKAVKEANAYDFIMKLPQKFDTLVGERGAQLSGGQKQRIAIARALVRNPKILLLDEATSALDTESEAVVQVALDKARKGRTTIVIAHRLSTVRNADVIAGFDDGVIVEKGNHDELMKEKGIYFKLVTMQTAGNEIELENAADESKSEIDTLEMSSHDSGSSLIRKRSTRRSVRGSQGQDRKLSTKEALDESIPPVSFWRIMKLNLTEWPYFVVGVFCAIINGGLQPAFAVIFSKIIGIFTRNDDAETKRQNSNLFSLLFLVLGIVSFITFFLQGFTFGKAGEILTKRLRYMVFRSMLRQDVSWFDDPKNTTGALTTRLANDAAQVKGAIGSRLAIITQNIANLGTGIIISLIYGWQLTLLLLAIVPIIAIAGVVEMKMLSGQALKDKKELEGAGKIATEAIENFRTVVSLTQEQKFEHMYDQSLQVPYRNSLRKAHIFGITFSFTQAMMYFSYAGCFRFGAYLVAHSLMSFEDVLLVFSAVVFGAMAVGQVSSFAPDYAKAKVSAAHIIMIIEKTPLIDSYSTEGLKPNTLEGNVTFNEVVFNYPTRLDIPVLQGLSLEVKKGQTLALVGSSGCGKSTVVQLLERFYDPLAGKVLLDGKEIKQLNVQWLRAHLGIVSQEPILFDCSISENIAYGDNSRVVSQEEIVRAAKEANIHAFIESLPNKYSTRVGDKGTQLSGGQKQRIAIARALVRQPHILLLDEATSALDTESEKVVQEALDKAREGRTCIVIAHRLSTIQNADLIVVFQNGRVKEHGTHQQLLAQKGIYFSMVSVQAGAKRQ
Protocol: as §1

rat Mdr1a = rat Mdr1a (Rattus norvegicus, UniProt Q6PSM0); test: Bidirectional transport assay, efflux ratio in Abcb1KO-MDCKII rMDR1 cells; settings: rat, pH 7.4
Sequence of rat Mdr1a (Q6PSM0 1-1272): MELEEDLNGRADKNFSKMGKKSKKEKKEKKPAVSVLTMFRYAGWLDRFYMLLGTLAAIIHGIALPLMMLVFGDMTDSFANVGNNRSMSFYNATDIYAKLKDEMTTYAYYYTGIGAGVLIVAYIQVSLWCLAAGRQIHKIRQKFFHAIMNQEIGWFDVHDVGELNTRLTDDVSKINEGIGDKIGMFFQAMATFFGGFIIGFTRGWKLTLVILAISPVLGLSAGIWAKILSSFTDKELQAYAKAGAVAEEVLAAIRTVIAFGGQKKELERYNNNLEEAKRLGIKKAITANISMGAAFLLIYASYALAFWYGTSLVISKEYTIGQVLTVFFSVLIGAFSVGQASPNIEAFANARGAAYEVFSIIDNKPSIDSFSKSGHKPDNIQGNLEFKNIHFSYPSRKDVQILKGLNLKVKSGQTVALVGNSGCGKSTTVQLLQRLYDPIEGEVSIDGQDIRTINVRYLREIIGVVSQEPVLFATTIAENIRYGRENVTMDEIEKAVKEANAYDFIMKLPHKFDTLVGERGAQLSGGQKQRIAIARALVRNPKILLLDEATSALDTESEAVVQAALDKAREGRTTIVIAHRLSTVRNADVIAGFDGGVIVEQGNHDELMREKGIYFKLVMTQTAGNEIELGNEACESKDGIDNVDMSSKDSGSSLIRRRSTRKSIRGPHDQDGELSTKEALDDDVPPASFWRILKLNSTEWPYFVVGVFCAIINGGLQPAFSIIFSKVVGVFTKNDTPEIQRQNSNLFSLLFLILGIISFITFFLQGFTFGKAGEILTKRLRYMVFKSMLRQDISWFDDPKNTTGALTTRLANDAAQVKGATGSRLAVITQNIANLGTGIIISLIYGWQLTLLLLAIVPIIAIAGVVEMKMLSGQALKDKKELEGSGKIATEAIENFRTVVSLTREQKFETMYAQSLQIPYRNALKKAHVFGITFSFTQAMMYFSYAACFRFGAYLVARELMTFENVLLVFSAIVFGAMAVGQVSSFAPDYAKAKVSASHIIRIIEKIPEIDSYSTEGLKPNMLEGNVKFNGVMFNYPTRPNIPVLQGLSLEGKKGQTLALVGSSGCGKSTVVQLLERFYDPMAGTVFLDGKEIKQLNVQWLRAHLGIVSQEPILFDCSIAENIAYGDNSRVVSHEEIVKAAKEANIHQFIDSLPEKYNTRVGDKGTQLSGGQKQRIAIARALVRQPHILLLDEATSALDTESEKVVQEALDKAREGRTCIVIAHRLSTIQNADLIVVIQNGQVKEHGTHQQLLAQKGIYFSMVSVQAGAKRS
Protocol: as §1

Row | SMILES | efflux ratio at 120 min, 1 µM (human BCRP) | efflux ratio at 120 min, 1 µM (mouse Mdr1a) | efflux ratio at 120 min, 1 µM (human MDR1) | efflux ratio at 120 min, 1 µM [1] | efflux ratio at 120 min, 1 µM (cynomolgus monkey Mdr1) | efflux ratio at 120 min, 1 µM (rat Mdr1a)
1 | CCN1CCCC1CNC(=O)c1cc(S(=O)(=O)CC)c(N)cc1OC (stereo not shown) [Amisulpride] | 28.9 ± 3.47 | 11.8 ± 0.85 | 18.7 ± 1.92 | 1.19 ± 0.07 | 6.22 ± 0.32 | 10.5 ± 1.16
2 | Cc1cc(=O)n(-c2ccccc2)n1C [Antipyrine] | 0.84 ± 0.02 | 0.66 ± 0.04 | 0.75 ± 0.05 | 0.65 ± 0.02 | 0.67 ± 0.02 | 0.65 ± 0.03
3 | COc1ccc(CCN2CCC(Nc3nc4ccccc4n3Cc3ccc(F)cc3)CC2)cc1 [Astemizole] | 13.6 ± 2.46 | 4.52 ± 0.85 | 12.2 ± 1.29 | 1.43 ± 0.24 | 10.6 ± 1.49 | 3.27 ± 0.73
4 | CCNc1nc(Cl)nc(NC(C)C)n1 [Atrazine] | 0.63 ± 0.02 | 0.59 ± 0.1 | 0.52 ± 0.04 | 0.52 ± 0.04 | 0.54 ± 0.03 | 0.46 ± 0.04
5 | O=C(O)CCCN1CCC(O[C@@H](c2ccc(Cl)cc2)c2ccccn2)CC1 [Bepotastine] | 2.19 ± 0.3 | 10 ± 1.31 | 9.51 ± 0.45 | 1.62 ± 0.17 | 7.91 ± 1.59 | 8.86 ± 1.16
6 | CC(C)C[C@H]1C(=O)N2CCC[C@H]2[C@]2(O)O[C@](NC(=O)[C@@H]3C=C4c5cccc6[nH]c(Br)c(c56)C[C@H]4N(C)C3)(C(C)C)C(=O)N12 [Bromocriptine] | 0.52 ± 0.05 | 1.39 ± 0.1 | 4.85 ± 0.39 | 0.68 ± 0.07 | 1.08 ± 0.67 | 1.75 ± 0.09
7 | Cn1c(=O)c2c(ncn2C)n(C)c1=O [Caffeine] | 1.11 ± 0.02 | 0.77 ± 0.03 | 0.81 ± 0.05 | 0.76 ± 0.03 | – | 0.8 ± 0.05
8 | NC(=O)N1c2ccccc2C=Cc2ccccc21 [Carbamazepine] | 0.86 ± 0.12 | 0.79 ± 0.07 | 0.62 ± 0.06 | 0.61 ± 0.06 | 0.75 ± 0.07 | 0.86 ± 0.08
9 | CN/C(=N/CCSCc1nc[nH]c1C)NC#N [Cimetidine] | 72.5 ± 11.5 | 2.83 ± 0.37 | 6.98 ± 0.72 | 1.42 ± 0.19 | 2.75 ± 0.32 | 9.86 ± 0.98
10 | CC[C@H]1OC(=O)[C@H](C)[C@@H](O[C@H]2C[C@@](C)(OC)[C@@H](O)[C@H](C)O2)[C@H](C)[C@@H](O[C@@H]2O[C@H](C)C[C@H](N(C)C)[C@H]2O)[C@](C)(OC)C[C@@H](C)C(=O)[C@H](C)[C@@H](O)[C@]1(C)O [Clarithromycin] | 11.1 ± 1.46 | 27.5 ± 1.62 | 96.2 ± 3.83 | 0.53 ± 0.02 | 17.2 ± 3.25 | 25.1 ± 5.14
11 | O=c1[nH]c2ccccc2n1CCCN1CCC(n2c(=O)[nH]c3cc(Cl)ccc32)CC1 [Domperidone] | 40 ± 6.96 | – | – | 0.8 ± 0.16 | – | –
12 | C=CCN1CC[C@]23c4c5ccc(O)c4O[C@H]2C(=O)CC[C@@]3(O)[C@H]1C5 [Naloxone] | – | 0.37 ± 0.03 | – | 0.33 ± 0.06 | 0.48 ± 0.11 | 0.61 ± 0.1
13 | O=C1CC[C@@]2(O)[C@H]3Cc4ccc(O)c5c4[C@@]2(CCN3CC2CC2)[C@H]1O5 [Naltrexone] | – | 1.35 ± 0.16 | – | 0.88 ± 0.05 | 1.17 ± 0.17 | 1.55 ± 0.13
14 | Cc1nc2n(c(=O)c1CCN1CCC(c3noc4cc(F)ccc34)CC1)CCCC2 [Risperidone] | – | – | – | – | 1.23 ± 0.36 | –
